Where no end group is shown, it is not given here.

The results in this text go back to publication PMC10319809, “Chronic UCN2 treatment desensitizes CRHR2 and improves insulin sensitivity” (Nature Communications, 2023).

For this assay, the target named is T1, CRHR2 alpha (Homo sapiens, UniProt Q13324).
T1 construct: host or cells: HEK-TREX-CRHR2 alpha cells, non-induced
T1 sequence (Q13324 1-411): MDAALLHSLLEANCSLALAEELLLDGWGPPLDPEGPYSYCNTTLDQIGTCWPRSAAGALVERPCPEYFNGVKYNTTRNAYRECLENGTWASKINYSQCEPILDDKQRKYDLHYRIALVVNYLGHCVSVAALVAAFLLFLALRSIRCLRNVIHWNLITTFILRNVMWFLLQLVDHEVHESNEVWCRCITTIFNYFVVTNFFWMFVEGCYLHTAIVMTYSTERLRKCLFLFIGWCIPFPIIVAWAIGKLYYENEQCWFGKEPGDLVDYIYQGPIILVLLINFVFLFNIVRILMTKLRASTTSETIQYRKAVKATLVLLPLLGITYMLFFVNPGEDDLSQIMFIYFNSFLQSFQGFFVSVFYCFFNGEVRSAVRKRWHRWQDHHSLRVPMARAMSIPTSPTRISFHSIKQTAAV
Description: HTRF cAMP assay in HEK-TREX-CRHR2 alpha cells, with or without UCN2 pre-treatment. Format: cell-based. The conditions noted are these: n = 3. The protocol: To determine whether CRHR2 functional desensitization in response to UCN2 occurred tissue-autonomously, we turned to CRHR2-transfected HEK 293 cells.
To measure cell-based CRHR2 agonist activity a HTRF (Homogenous Time-Resolved Fluorescence) cAMP detection kit (Cisbio cAMP dynamic 2 assay kit) was performed in non-induced HEK-TREX-CRHR2 alpha cells (Fisher Scientific). Cells were plated one day before the assay in 384-well plates at 1500 cells/well and assayed in adherent mode by removing the media, patting on paper towel and adding 10 µl of 1 µM of UCN2 or vehicle control for 1 h. Cells were gently washed 3 times with wash buffer and rested for 6 h in incubator. Following rest, cells were restimulated with titrating concentrations of UCN2 with IBMX, at a final concentration of 250 µM. Reactions continued for 30 min at 37 °C followed by addition of detection reagents and a one-hour minimum incubation at room temperature. HTRF, a competitive immunoassay, produces a fluorescence signal read with an Envision multi-plate reader using an excitation of 330 nm and emissions of 615 and 665 nm. By interpolation from a cAMP standard curve, raw data were converted to nm cAMP and then expressed as percent effect of 1 µM UCN2 in vehicle control pretreatment conditions.

On to “IVLSLDVPIGLLQILLEQARARAAREQATTNARILARVGHC-NH2 (C-terminus assumed) [UCN2, Urocortin 2]”, for which the “cAMP response to subsequent UCN2 after UCN2 pre-treatment” value (1 µM UCN2 for 1 h, wash, 6 h rest, restimulation) is on record as “significantly blunts the cAMP activation response”. Further, the “cAMP response to increasing concentrations” value (CRHR2-transfected HEK 293 cells, 30 min at 37 °C, IBMX 250 µM) is “increases in a dose-dependent manner”.
